Where “and” joins values, the source holds several entries; their conditions need not be identical. Identical values can stand only once.
System: citric acid (1M) evoked cough in guinea pigs
Assay: Citric acid (1M) aerosol-evoked coughs and sneezes in conscious guinea pigs after oral pre-treatment
Format: in vivo, Male Dunkin Hartley guinea pigs
Experimental: The guinea pig species used in one study was twenty four Male Dunkin Hartley guinea pigs, each weighing between 300 and 350 g, which were supplied by Marshall Bioresources Ltd, UK.
A test compound, Ifenprodil, and Gefapixant (in powder form) were prepared and formulated by initially adding 100% propylene glycol at the required volume for the final treatment buffer. The additional buffer ingredients were added in a stepwise fashion, initially solutol and then captisol. Each ingredient was added in a volume equivalent to that which is required for the final volume of treatment buffer for the stock formulation.
In particular, for Gefapixant, this was 0.7 mg/mL, a concentration that delivers 3.5 mg/Kg in a dose volume of 5 mL/Kg. For Ifenprodil, this was 0.3 mg/mL, a concentration that delivers 1.5 mg/Kg in a dose volume of 5 mL/Kg.
Prior to the addition of each buffer ingredient, the test compound formulations were sonicated for 15 min using a Branson 1510 Sonicator. Afterwards, the initial formulation of the test compound and Gefapixant were diluted with a prepared buffer vehicle to provide additional dosing formulations. This was 0.01 to 0.2 mg/ml, preferably 0.06 mg/mL, a dose that delivers 0.3 mg/Kg in a dose volume of 5 mL/Kg.
The final test compound buffer vehicle comprised of 10:10:80 mix of propylene glycol:20% Solutol in PBS:5% Captisol in PBS.
All final test and control formulations were sonicated for 30 min prior to dosing to generate an even suspension or to ensure that the formulation had visibly dissolved.
The animals were first pre-treated (5 mL/Kg, p.o.) with the vehicle, the test compound, or Gefapixant prior to tussive agent (citric acid) exposure, using the amounts set out in Table 1 below. In each case, the route of administration of the treatment was oral.
Animals receiving Gefapixant (3.5 mg/Kg) were dosed 2 hours prior to tussive agent exposure. Animals receiving Ifenprodil (1.5 mg/Kg) were dosed 30 minutes prior to tussive agent exposure.
10 min prior to the tussive evaluation, each animal was individually placed into a purpose built exposure chamber with a supplied airflow through a nebuliser of 2 L/min, and allowed to settle into its new environment.
Following the acclimatisation period, each animal was then exposed for 10 min to an aerosol of 1M citric acid using an ultrasonic nebuliser (Aerogen) set at a nominal liquid consumption rate of 0.6 mL/min.
Coughs and sneezes elicited during the 10 minute aerosol of 1M citric acid, and a subsequent 5 minute observation period, were recorded manually to monitor the animal's welfare. […] The data was analysed for onset of cough, cough numbers and frequency, and sneezes.
The following measurements and assessments were taken for each guinea pig: • Mean total number of coughs evoked in each treatment group • Mean onset of first cough in each group • Mean number of coughs per minute during citric acid exposure in each treatment group
Inter-group deviations were statistically analyzed by a one-way analysis of variance (ANOVA). In the case of significant difference in the mean values among the different levels of treatment, comparisons versus the citric acid vehicle group were carried out using the Dunnett's test. p<0.05 was considered statistically significant.

[1] = Mean of n=6 animals, 10 min Citric acid (1M) exposure, Gefapixant 3.5 mg/Kg p.o., Ifenprodil 1.5 mg/Kg
[2] = Mean of n=6 animals, Post Exposure (5 mins) after 10 min Citric acid (1M), Gefapixant 3.5 mg/Kg p.o., Ifenprodil 1.5 mg/Kg
[3] = Total of n=6 animals, 10 min Citric acid (1M) exposure, Gefapixant 3.5 mg/Kg p.o., Ifenprodil 1.5 mg/Kg
[4] = Total of n=6 animals, Post Exposure (5 mins) after 10 min Citric acid (1M), Gefapixant 3.5 mg/Kg p.o., Ifenprodil 1.5 mg/Kg
[5] = individual animals (ID 1-6), 10 min Citric acid (1M) exposure, Gefapixant 3.5 mg/Kg p.o., Ifenprodil 1.5 mg/Kg
[6] = individual animals (ID 1-6), Post Exposure (5 mins) after 10 min Citric acid (1M), Gefapixant 3.5 mg/Kg p.o., Ifenprodil 1.5 mg/Kg

C[C@@H]([C@H](O)c1ccc(O)cc1)N1CCC(Cc2ccccc2)CC1 (racemic) [Ifenprodil, 4-[2-(4-benzylpiperidin-1-ium-1-yl)-1-hydroxypropyl] phenol; 2,3,4-trihydroxy-4-oxobutanoate]
Total Coughs, Mean (10 min citric acid (1M) exposure + 5 min post exposure, group mean, n=6): 17.17
Total Coughs, individual animal (10 min citric acid (1M) exposure + 5 min post exposure, individual animals 1-6): 16 (2×) and 17 and 23 and 19 and 12
average number of coughs per animal (total number of coughs) (10 min citric acid (1M) exposure + 5 min recovery, Gefapixant 3.5 mg/Kg p.o. 2 hrs prior, Ifenprodil 1.5 mg/Kg p.o. 30 min prior, n=6): 17.17 coughs per animal
reduction in mean cough frequency vs untreated control (Ifenprodil 1.5 mg/kg (p<0.01), Gefapixant 3.5 mg/kg (p<0.05)): 42%
Sneezes, Observation Period 0-1, group Mean [1]: 0.2
Sneezes, Observation Period 1-2, group Mean [1]: 0.5
Sneezes, Observation Period 2-3, group Mean [1]: 0.3
Sneezes, Observation Period 3-4, group Mean [1]: 0.3
Sneezes, Observation Period 4-5, group Mean [1]: 0.5
Sneezes, Observation Period 5-6, group Mean [1]: 0.3
Sneezes, Observation Period 6-7, group Mean [1]: 0.7
Sneezes, Observation Period 7-8, group Mean [1]: 0.5
Sneezes, Observation Period 8-9, group Mean [1]: 0.0
Sneezes, Observation Period 9-10, group Mean [1]: 0.0
Sneezes, Observation Period 10-11, group Mean [2]: 0.0
Sneezes, Observation Period 11-12, group Mean [2]: 0.0
Sneezes, Observation Period 12-13, group Mean [2]: 0.0
Sneezes, Observation Period 13-14, group Mean [2]: 0.0
Sneezes, Observation Period 14-15, group Mean [2]: 0.0
Total Sneezes, group Mean (Mean of n=6 animals, whole observation period 0-15 (10 min Citric acid (1M) exposure + Post Exposure 5 mins), Gefapixant 3.5 mg/Kg p.o., Ifenprodil 1.5 mg/Kg): 3.33
Sneezes, Observation Period 0-1, group Total [3]: 1.0
Sneezes, Observation Period 1-2, group Total [3]: 3.0
Sneezes, Observation Period 2-3, group Total [3]: 2.0
Sneezes, Observation Period 3-4, group Total [3]: 2.0
Sneezes, Observation Period 4-5, group Total [3]: 3.0
Sneezes, Observation Period 5-6, group Total [3]: 2.0
Sneezes, Observation Period 6-7, group Total [3]: 4.0
Sneezes, Observation Period 7-8, group Total [3]: 3.0
Sneezes, Observation Period 8-9, group Total [3]: 0.0
Sneezes, Observation Period 9-10, group Total [3]: 0.0
Sneezes, Observation Period 10-11, group Total [4]: 0.0
Sneezes, Observation Period 11-12, group Total [4]: 0.0
Sneezes, Observation Period 12-13, group Total [4]: 0.0
Sneezes, Observation Period 13-14, group Total [4]: 0.0
Sneezes, Observation Period 14-15, group Total [4]: 0.0
first onset of cough (citric acid (1M) exposure, Gefapixant 3.5 mg/Kg p.o., Ifenprodil 1.5 mg/Kg p.o., group mean, n=6): 59.8 s
average number of sneezes per animal (citric acid (1M) exposure, Gefapixant 3.5 mg/Kg p.o., Ifenprodil 1.5 mg/Kg p.o., n=6): 3.33 sneezes per animal
Onset (sec), Mean (citric acid (1M) exposure, group mean, n=6): 59.8 s
Onset (sec), individual animal (citric acid (1M) exposure, individual animals 1-6): 65 sec and 69 sec and 43 sec (2×) and 72 sec and 67 sec
Sneezes, Observation Period 0-1 [5]: 0 (5×) and 1
Sneezes, Observation Period 1-2 [5]: 1 (3×) and 0 (3×)
Sneezes, Observation Period 2-3 [5]: 0 (4×) and 1 (2×)
Sneezes, Observation Period 3-4 [5]: 1 (2×) and 0 (4×)
Sneezes, Observation Period 4-5 [5]: 0 (4×) and 1 and 2
Sneezes, Observation Period 5-6 [5]: 1 (2×) and 0 (4×)
Sneezes, Observation Period 6-7 [5]: 1 (4×) and 0 (2×)
Sneezes, Observation Period 7-8 [5]: 0 (3×) and 1 (3×)
Sneezes, Observation Period 8-9 [5]: 0
Sneezes, Observation Period 9-10 [5]: 0
Sneezes, Observation Period 10-11 [6]: 0
Sneezes, Observation Period 11-12 [6]: 0
Sneezes, Observation Period 12-13 [6]: 0
Sneezes, Observation Period 13-14 [6]: 0
Sneezes, Observation Period 14-15 [6]: 0
Total Sneezes (individual animals (ID 1-6), whole observation period 0-15 (10 min Citric acid (1M) exposure + Post Exposure 5 mins), Gefapixant 3.5 mg/Kg p.o., Ifenprodil 1.5 mg/Kg): 4 and 3 (3×) and 5 and 2
Cough, observation period 0-1, Mean (min 0-1 of citric acid (1M) exposure, group mean, n=6): 0.7
Cough, observation period 0-1, individual animal (min 0-1 of citric acid (1M) exposure, individual animals 1-6): 0 (3×) and 1 (2×) and 2
Cough, observation period 0-1, Total (min 0-1 of citric acid (1M) exposure, sum over 6 animals): 4.0
Cough, observation period 1-2, Mean (min 1-2 of citric acid (1M) exposure, group mean, n=6): 1.5
Cough, observation period 1-2, individual animal (min 1-2 of citric acid (1M) exposure, individual animals 1-6): 1 (3×) and 2 (3×)
Cough, observation period 1-2, Total (min 1-2 of citric acid (1M) exposure, sum over 6 animals): 9.0
Cough, observation period 2-3, Mean (min 2-3 of citric acid (1M) exposure, group mean, n=6): 2.3
Cough, observation period 2-3, individual animal (min 2-3 of citric acid (1M) exposure, individual animals 1-6): 3 (4×) and 2 and 0
Cough, observation period 2-3, Total (min 2-3 of citric acid (1M) exposure, sum over 6 animals): 14.0
Cough, observation period 3-4, Mean (min 3-4 of citric acid (1M) exposure, group mean, n=6): 2.2
Cough, observation period 3-4, individual animal (min 3-4 of citric acid (1M) exposure, individual animals 1-6): 3 (2×) and 2 (3×) and 1
Cough, observation period 3-4, Total (min 3-4 of citric acid (1M) exposure, sum over 6 animals): 13.0
Cough, observation period 4-5, Mean (min 4-5 of citric acid (1M) exposure, group mean, n=6): 2.5
Cough, observation period 4-5, individual animal (min 4-5 of citric acid (1M) exposure, individual animals 1-6): 3 (4×) and 2 and 1
Cough, observation period 4-5, Total (min 4-5 of citric acid (1M) exposure, sum over 6 animals): 15.0
Cough, observation period 5-6, Mean (min 5-6 of citric acid (1M) exposure, group mean, n=6): 2.3
Cough, observation period 5-6, individual animal (min 5-6 of citric acid (1M) exposure, individual animals 1-6): 2 (4×) and 3 (2×)
Cough, observation period 5-6, Total (min 5-6 of citric acid (1M) exposure, sum over 6 animals): 14.0
Cough, observation period 6-7, Mean (min 6-7 of citric acid (1M) exposure, group mean, n=6): 1.3
Cough, observation period 6-7, individual animal (min 6-7 of citric acid (1M) exposure, individual animals 1-6): 1 (3×) and 2 and 0 and 3
Cough, observation period 6-7, Total (min 6-7 of citric acid (1M) exposure, sum over 6 animals): 8.0
Cough, observation period 7-8, Mean (min 7-8 of citric acid (1M) exposure, group mean, n=6): 1.7
Cough, observation period 7-8, individual animal (min 7-8 of citric acid (1M) exposure, individual animals 1-6): 1 (2×) and 2 (4×)
Cough, observation period 7-8, Total (min 7-8 of citric acid (1M) exposure, sum over 6 animals): 10.0
Cough, observation period 8-9, Mean (min 8-9 of citric acid (1M) exposure, group mean, n=6): 1.0
Cough, observation period 8-9, individual animal (min 8-9 of citric acid (1M) exposure, individual animals 1-6): 0 (2×) and 1 (3×) and 3
Cough, observation period 8-9, Total (min 8-9 of citric acid (1M) exposure, sum over 6 animals): 6.0
Cough, observation period 9-10, Mean (min 9-10 of citric acid (1M) exposure, group mean, n=6): 0.8
Cough, observation period 9-10, individual animal (min 9-10 of citric acid (1M) exposure, individual animals 1-6): 1 (3×) and 0 (2×) and 2
Cough, observation period 9-10, Total (min 9-10 of citric acid (1M) exposure, sum over 6 animals): 5.0
Cough, observation period 10-11, Mean (min 10-11, post exposure, group mean, n=6): 0.7
Cough, observation period 10-11, individual animal (min 10-11, post exposure, individual animals 1-6): 0 (2×) and 1 (4×)
Cough, observation period 10-11, Total (min 10-11, post exposure, sum over 6 animals): 4.0
Cough, observation period 11-12, Mean (min 11-12, post exposure, group mean, n=6): 0.2
Cough, observation period 11-12, individual animal (min 11-12, post exposure, individual animals 1-6): 1 and 0 (5×)
Cough, observation period 11-12, Total (min 11-12, post exposure, sum over 6 animals): 1.0
Cough, observation period 12-13, Mean (min 12-13, post exposure, group mean, n=6): 0.0
Cough, observation period 12-13, individual animal (min 12-13, post exposure, individual animals 1-6): 0
Cough, observation period 12-13, Total (min 12-13, post exposure, sum over 6 animals): 0.0
Cough, observation period 13-14, Mean (min 13-14, post exposure, group mean, n=6): 0.0
Cough, observation period 13-14, individual animal (min 13-14, post exposure, individual animals 1-6): 0
Cough, observation period 13-14, Total (min 13-14, post exposure, sum over 6 animals): 0.0
Cough, observation period 14-15, Mean (min 14-15, post exposure, group mean, n=6): 0.0
Cough, observation period 14-15, individual animal (min 14-15, post exposure, individual animals 1-6): 0
Cough, observation period 14-15, Total (min 14-15, post exposure, sum over 6 animals): 0.0
anti-tussive effect (in words) (oral administration, conscious guinea pigs with citric acid): shows efficacy in preventing and/or alleviating coughing
